Tests used:
Drosophila melanogaster [1] = test: Drosophila melanogaster T-maze assay; type: in vivo; conditions: compounds at 5% concentration; average of 3 trials; negative P.I. indicates repellency
Experimental: T-maze assay was used to test selected compounds. 4-7 day old starved wild-type flies of Drosophila melanogaster (20 males plus 20 females/trial) were tested. Under a chemical hood, 10 ul of solvent and 10 ul of test chemical were applied onto filter paper placed in control tubes and test tubes. The flies were loaded into the elevator of a T-maze apparatus and lowered into position where they could make a choice between the solvent tube and the test chemical tube. After allowing flies to make choice for 1 minute in dark, the elevator was closed and number of flies in each tube was counted. Preference Index (P.I.)=(#flies in test arm−#flies in control arm)/(#flies in test arm+#flies in control arm). The results presented in Table 2 report the average Preference Index from 3 independent trials.

Aedes aegypti [2] = test: Aedes aegypti 2-choice landing assay (two-choice heat assay); type: in vivo; conditions: compounds at 3% concentration; female Aedes aegypti; two heat sources at 37 C. as attractants; 5 minute trial
Experimental: In order to test the compounds in mosquitoes, a Two-choice heat assay in Aedes aegypti was performed. A pair of heat sources were prepared using 2 hand warmers fitted into a 100×15 mm petri dish base and covered with 15×15 cm polyester netting secured round the petri dish by a pair or 8 inch plastic cable ties (Gardner Bender, Milwaukee, Wis.) coupling. Excess netting material was trimmed off round the edges of the petri dish. The treatment chemical 500 μl was added at 3% concentration directly onto the netting and the two assembled dishes were placed inside a cage of 20 female A. aegypti mosquitoes. Total numbers of mosquito landings on the net covering of each dish were counted during the assay from video recordings of the 5 minute trial. The solvent and DEET positions were alternated between runs.

Aedes aegypti [3] = test: Aedes aegypti 1-choice landing assay (heat source attractant); type: in vivo; conditions: compounds at 3% concentration; female Aedes aegypti; one heat source at 37 C. as attractant
Aedes aegypti females = test: Modified arm-in-cage assay; type: in vivo; conditions: 3% 4-methyl piperidine on filter paper adjoining netted landing window of glove
Text: FIG. […] (2a) Control and 4-MP treated gloves; (2b) Mean numbers of landings within minutes 2-5 of the assay. N=4 trials, ˜40 mosquitoes/trial.
The identification of these compounds started with understanding the biochemical, spacial charge density and other biochemical and physical factors aside from straight chemical structure for imparting the activity with existing DEET-like chemical structure and are therefore studying just DEET-like properties there were limits in finding completely novel classes of repellents that are not structurally related to DEET. Additional properties were then added. […] Olfactory avoidance to DEET is active over a short range (˜1 cm) and mosquitoes are not repelled beyond the immediate vicinity. Therefore, a modified arm-in-cage assay was developed where a low concentration of 4-MP can be applied to filter paper pieces adjoining the netted landing window of the glove (FIG. 2a). […]

mosquitoes = conditions: cited from earlier work
Drosophila melanogaster [4] = test: Drosophila melanogaster 2-choice trap assay; type: in vivo; conditions: compounds at 5% concentration; 48 hours; negative P.I. indicates repellency
Experimental: In a second type of assay, a Drosophila melanogaster 2-choice trap assay as described previously^4,6 was used with minor modifications. Traps were made with two 1.5 ml microcentrifuge tubes (USA Scientific) and 200 microliter pipette tips (USA Scientific), each cap contained standard cornmeal medium. T-shape piece of filter paper (Whatman #1) was impregnated with 5 ul of acetone (control) or 5 microliters of 5% test odor, diluted in acetone. Traps were placed within a petri dish (100×15 mm, Fisher) containing 10 ml of 1% agarose to provide moisture. Ten wild-type Drosophila melanogaster flies 4-7 days old were used per trial, which lasted 48 hours by which time point nearly all flies in the assays had made a choice and were counted. Preference Index (P.I.)=(number of flies in treated trap−number in control trap)/(number of flies in treated+control traps).

Compound | P.I. (mean preference index) (Drosophila melanogaster [1]) | P.I. (mean preference index) (Aedes aegypti [2]) | Average % Repellency (Aedes aegypti [3]) [%] | other results
CC1=CCC=CC1 [1-methyl-1,4-cyclohexadiene] | −0.76 | −0.1584 | 27.01 | –
CC1CCNCC1 [4-methyl piperidine] | – | – | – | Repellency from skin-exposed net window (Aedes aegypti females): effectively repel mosquitoes
C1=COCCC1 [Dihydropyran] | – | −0.2819 | – | –
CCC1=C(O)C(=O)CC1 [Ethyl cyclopentenolone] | – | −0.7423 | 77.44 | –
Isopropyl Quinoline | −0.17 | – | 96.36 | –
CCN(CC)C(=O)c1cccc(C)c1 [DEET, N,N-Diethyl-m-toluamide] | – | – | – | Range over which olfactory avoidance is active (mosquitoes): ~1 cm
CCCCC1CO1 (centres unmarked) [1,2-Epoxyhexane] | −0.2 | – | – | –
CC1=C(O)C(=O)C(C)O1 (centres unmarked) [4-Hydroxy-2,5-Dimethyl-3(2H)-Furanone] | – | – | – | P.I. (mean preference index) (Drosophila melanogaster [4]): −0.24
c1ccc2c(c1)CCCN2 [1,2,3,4-Tetrahydroquinoline] | – | −0.9965 | 99.82 | P.I. (mean preference index) (Drosophila melanogaster [4]): −0.74
CC1CCCO1 (centres unmarked) [2-methyl tetrahydrofuran] | – | −0.1815 | 29.78 | –
CCN1CCCC1=O [1-Ethyl-2-pyrrolidone] | – | – | – | P.I. (mean preference index) (Drosophila melanogaster [4]): −0.12
C1=COCCC1 [3.4-Dihydro-2H-pyran, 3,4-Dihydro-2H-pyran] | −0.88 | – | – | –
COC(=O)Cc1ccc(C(C)(C)C)cc1 [methyl 2-(4-tert-butylphenyl)acetate] | – | – | – | P.I. (mean preference index) (Drosophila melanogaster [4]): −0.14
CC1COC(C)(C)O1 (centres unmarked) [Propylene glycol acetone ketal] | −0.09 | – | – | –
CC1CC=CCC1 (centres unmarked) [4-methyl cyclohexene] | – | −0.8265 | 90.39 | –
CC(C)CC1OCC(C)O1 (centres unmarked) [2-Isobutyl-4-methyl-1,3-dioxolane] | −0.3 | −0.2189 | 35.92 | –
